Measurements from the kinase profiling compilation of Christmann-Franck et al. (2016).

Tests used:
Experiment in all cases: radiometric filter-binding kinase assay, Kinase HotSpot
Settings in all cases: compound 0.5 µM; ATP 10 µM
FGFR3 (human) = FGFR3 (human) (UniProt P22607)
CAMKK2 (human) = CAMKK2 (human) (UniProt Q96RR4)
INSR (human) = INSR (human) (UniProt P06213)
PAK6 (human) = PAK6 (human) (UniProt Q9NQU5)
MAP3K10 (human) = MAP3K10 (human) (UniProt Q02779)
MAPKAPK2 (human) = MAPKAPK2 (human) (UniProt P49137)
MINK1 (human) = MINK1 (human) (UniProt Q8N4C8)
PRKD1 (human) = PRKD1 (human) (UniProt Q15139)
DYRK4 (human) = DYRK4 (human) (UniProt Q9NR20)
PNCK (human) = PNCK (human) (UniProt Q6P2M8)
Chain of PNCK (human) (Q6P2M8 whole entry, looked up): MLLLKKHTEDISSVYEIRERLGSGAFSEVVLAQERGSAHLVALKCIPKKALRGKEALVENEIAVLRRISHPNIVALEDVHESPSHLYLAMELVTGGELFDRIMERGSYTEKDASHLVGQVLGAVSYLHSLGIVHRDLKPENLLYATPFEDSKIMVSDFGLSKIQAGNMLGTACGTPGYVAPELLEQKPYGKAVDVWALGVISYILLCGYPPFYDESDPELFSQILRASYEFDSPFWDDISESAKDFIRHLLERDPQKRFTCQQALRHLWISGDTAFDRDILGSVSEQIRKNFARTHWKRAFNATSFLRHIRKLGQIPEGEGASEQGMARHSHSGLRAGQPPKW

PRKCI (human) = PRKCI (human) (UniProt P41743)
BRSK2 (human) = BRSK2 (human) (UniProt Q8IWQ3)
DYRK1A (human) = DYRK1A (human) (UniProt Q13627)
EPHA3 (human) = EPHA3 (human) (UniProt P29320)
NUAK1 (human) = NUAK1 (human) (UniProt O60285)
PIM3 (human) = PIM3 (human) (UniProt Q86V86)
WNK3 (human) = WNK3 (human) (UniProt Q9BYP7)
LIMK1 (human) = LIMK1 (human) (UniProt P53667)
EPHB1 (human) = EPHB1 (human) (UniProt P54762)
Chain of EPHB1 (human) (P54762 whole entry, looked up): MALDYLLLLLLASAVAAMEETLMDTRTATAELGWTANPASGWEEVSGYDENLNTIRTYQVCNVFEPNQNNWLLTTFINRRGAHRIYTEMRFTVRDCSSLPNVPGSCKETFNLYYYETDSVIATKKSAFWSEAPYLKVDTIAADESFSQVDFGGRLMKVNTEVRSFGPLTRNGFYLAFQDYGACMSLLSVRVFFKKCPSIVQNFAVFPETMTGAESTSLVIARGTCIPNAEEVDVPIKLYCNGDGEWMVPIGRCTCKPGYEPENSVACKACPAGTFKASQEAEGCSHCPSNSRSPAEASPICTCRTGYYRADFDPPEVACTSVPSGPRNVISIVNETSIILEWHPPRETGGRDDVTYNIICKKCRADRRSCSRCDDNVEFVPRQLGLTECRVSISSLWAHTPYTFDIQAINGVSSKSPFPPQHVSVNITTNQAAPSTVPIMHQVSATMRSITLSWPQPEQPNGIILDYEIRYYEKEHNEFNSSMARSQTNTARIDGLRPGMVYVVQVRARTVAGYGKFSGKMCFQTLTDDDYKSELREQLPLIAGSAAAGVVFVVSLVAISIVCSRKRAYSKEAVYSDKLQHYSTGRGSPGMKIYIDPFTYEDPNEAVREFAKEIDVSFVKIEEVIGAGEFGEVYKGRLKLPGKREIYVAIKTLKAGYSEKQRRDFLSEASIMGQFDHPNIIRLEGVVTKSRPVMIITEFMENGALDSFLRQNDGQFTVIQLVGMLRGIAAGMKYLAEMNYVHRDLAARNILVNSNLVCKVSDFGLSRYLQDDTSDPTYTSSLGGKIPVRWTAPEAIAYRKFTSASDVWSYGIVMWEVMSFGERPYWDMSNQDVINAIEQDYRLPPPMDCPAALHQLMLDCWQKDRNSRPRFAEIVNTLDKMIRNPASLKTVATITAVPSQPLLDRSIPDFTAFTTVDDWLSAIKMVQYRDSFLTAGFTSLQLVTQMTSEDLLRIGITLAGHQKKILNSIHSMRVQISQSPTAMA

GRK6 (human) = GRK6 (human) (UniProt P43250)
MARK4 (human) = MARK4 (human) (UniProt Q96L34)
DCLK2 (human) = DCLK2 (human) (UniProt Q8N568)
Chain of DCLK2 (human) (Q8N568 whole entry, looked up): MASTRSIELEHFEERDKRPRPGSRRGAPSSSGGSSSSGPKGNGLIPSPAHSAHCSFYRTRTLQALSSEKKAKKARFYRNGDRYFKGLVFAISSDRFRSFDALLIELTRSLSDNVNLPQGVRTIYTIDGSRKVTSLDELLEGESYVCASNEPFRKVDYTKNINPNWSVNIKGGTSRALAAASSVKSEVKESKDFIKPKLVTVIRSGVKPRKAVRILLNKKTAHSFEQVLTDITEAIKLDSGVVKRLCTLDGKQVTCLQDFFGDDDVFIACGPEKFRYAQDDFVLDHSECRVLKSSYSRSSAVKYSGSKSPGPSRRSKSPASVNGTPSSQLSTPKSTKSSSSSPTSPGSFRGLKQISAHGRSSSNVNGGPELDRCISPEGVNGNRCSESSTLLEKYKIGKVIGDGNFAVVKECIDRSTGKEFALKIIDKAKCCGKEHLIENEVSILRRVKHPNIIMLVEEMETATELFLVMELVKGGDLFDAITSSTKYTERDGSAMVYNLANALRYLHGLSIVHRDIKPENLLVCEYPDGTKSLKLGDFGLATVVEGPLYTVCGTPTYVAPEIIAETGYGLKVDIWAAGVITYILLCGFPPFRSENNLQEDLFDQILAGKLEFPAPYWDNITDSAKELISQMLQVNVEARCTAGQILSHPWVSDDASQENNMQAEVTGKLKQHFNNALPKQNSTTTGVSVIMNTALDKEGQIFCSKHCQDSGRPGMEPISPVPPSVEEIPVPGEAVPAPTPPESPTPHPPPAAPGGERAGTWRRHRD

CDK2 CCNE1 (human) = CDK2 CCNE1 (human) (UniProt P24941+P24864)
BMX (human) = BMX (human) (UniProt P51813)
Chain of BMX (human) (P51813 whole entry, looked up): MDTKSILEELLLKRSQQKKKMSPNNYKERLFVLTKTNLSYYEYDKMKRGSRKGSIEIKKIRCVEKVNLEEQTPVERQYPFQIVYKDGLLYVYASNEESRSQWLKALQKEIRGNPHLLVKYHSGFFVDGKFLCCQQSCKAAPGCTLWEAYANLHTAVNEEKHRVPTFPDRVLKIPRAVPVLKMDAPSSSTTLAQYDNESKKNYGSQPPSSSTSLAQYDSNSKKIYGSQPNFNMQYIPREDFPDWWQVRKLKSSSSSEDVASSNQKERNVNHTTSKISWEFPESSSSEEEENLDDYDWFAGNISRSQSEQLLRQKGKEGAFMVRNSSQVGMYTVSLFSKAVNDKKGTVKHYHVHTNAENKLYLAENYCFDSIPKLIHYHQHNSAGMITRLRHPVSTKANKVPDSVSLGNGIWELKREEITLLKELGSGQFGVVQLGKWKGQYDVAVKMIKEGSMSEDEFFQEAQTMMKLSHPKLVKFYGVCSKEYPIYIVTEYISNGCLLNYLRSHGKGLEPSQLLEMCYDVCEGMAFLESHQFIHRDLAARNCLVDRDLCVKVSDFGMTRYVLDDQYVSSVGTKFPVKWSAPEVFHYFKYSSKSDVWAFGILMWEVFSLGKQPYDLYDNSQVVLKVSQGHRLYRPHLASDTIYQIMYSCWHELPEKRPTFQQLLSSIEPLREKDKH

EPHA2 (human) = EPHA2 (human) (UniProt P29317)
SYK (human) = SYK (human) (UniProt P43405)
WNK2 (human) = WNK2 (human) (UniProt Q9Y3S1)
MERTK (human) = MERTK (human) (UniProt Q12866)
PAK4 (human) = PAK4 (human) (UniProt O96013)
CLK1 (human) = CLK1 (human) (UniProt P49759)
KDR (human) = KDR (human) (UniProt P35968)
Chain of KDR (human) (P35968 whole entry, looked up): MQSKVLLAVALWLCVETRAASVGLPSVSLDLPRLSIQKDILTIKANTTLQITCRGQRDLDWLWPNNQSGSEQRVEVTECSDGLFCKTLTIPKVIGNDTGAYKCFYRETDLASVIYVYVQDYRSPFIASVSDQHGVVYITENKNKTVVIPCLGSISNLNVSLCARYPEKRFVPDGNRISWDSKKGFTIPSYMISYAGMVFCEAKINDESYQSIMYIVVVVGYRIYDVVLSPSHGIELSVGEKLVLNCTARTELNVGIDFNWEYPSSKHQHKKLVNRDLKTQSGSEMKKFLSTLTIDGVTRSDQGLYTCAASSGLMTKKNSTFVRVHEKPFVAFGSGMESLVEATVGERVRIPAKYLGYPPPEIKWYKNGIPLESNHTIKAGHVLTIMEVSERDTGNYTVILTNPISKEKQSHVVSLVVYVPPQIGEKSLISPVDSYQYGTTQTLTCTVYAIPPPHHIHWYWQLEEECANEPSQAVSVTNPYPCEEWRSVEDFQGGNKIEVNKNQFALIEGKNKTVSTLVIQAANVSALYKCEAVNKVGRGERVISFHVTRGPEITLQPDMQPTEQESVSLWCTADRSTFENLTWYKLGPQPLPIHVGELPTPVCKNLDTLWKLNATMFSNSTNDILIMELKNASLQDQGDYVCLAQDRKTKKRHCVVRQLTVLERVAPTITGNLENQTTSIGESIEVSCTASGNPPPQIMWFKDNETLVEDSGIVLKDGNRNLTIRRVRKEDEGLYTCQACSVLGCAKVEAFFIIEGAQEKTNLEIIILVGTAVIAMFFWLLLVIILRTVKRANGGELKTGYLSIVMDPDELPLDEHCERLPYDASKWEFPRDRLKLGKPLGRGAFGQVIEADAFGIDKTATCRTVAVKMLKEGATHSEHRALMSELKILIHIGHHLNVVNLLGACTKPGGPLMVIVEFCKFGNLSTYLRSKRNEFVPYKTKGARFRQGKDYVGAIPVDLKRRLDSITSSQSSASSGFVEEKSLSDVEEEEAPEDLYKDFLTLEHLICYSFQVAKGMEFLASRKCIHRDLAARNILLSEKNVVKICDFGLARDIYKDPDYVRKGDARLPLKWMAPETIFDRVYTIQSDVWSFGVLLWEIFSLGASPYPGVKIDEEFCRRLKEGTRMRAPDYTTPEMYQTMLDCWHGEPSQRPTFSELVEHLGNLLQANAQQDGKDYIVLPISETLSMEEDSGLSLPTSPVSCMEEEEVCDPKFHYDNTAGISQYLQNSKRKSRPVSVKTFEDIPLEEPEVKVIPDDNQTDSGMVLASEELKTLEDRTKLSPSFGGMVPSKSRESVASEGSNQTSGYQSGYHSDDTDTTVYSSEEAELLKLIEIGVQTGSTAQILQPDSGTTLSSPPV

BLK (human) = BLK (human) (UniProt P51451)
NTRK2 (human) = NTRK2 (human) (UniProt Q16620)
RPS6KA3 KD1 KD2 (human) = RPS6KA3 KD1 KD2 (human) (UniProt P51812)
EPHA4 (human) = EPHA4 (human) (UniProt P54764)
FLT3 (human) = FLT3 (human) (UniProt P36888)
TGFBR2 (human) = TGFBR2 (human) (UniProt P37173)
AURKB (human) = AURKB (human) (UniProt Q96GD4)
CAMKK1 (human) = CAMKK1 (human) (UniProt Q8N5S9)
PTK6 (human) = PTK6 (human) (UniProt Q13882)
ACVR1 (human) = ACVR1 (human) (UniProt Q04771)
FRK (human) = FRK (human) (UniProt P42685)

Chain of MAP3K10 (human) (Q02779 whole entry, looked up): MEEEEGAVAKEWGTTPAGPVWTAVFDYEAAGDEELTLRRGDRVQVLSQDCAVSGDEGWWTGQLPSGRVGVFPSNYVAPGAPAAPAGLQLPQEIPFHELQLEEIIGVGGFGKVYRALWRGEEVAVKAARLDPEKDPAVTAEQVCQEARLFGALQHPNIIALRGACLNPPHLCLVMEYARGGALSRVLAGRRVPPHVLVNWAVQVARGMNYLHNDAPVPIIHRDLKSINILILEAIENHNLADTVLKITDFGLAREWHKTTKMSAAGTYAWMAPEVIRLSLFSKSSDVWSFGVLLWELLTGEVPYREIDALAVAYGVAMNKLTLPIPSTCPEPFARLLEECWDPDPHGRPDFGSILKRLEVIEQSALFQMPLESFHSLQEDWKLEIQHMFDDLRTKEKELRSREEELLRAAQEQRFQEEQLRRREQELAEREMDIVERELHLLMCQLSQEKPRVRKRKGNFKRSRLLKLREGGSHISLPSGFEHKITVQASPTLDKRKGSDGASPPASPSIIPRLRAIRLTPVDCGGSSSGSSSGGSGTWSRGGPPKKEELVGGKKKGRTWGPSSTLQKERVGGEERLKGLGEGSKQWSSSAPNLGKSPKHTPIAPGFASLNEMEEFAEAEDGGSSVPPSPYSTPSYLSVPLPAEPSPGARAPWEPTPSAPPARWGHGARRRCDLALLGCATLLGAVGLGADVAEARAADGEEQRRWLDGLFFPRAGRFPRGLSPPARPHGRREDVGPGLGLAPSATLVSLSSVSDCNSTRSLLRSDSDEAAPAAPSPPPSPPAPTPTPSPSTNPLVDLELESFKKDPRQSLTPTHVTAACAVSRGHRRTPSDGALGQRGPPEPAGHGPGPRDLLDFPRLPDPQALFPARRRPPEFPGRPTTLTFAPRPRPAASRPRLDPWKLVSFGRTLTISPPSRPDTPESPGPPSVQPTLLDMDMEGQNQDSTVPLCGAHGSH

Compound: O=C(Nc1cccc(Nc2cc(Nc3cccc(C(F)(F)F)c3)ncn2)c1)C1CC1
- residual activity (FGFR3 (human)): 102%
- residual activity (CAMKK2 (human)): 98.5%
- residual activity (INSR (human)): 103%
- residual activity (PAK6 (human)): 99.3%
- residual activity (MAP3K10 (human)): 101%
- residual activity (MAPKAPK2 (human)): 104%
- residual activity (MINK1 (human)): 95.9%
- residual activity (PRKD1 (human)): 100%
- residual activity (DYRK4 (human)): 98%
- residual activity (PNCK (human)): 101%
- residual activity (PRKCI (human)): 98.1%
- residual activity (BRSK2 (human)): 95.8%
- residual activity (DYRK1A (human)): 104%
- residual activity (EPHA3 (human)): 98.4%
- residual activity (NUAK1 (human)): 102%
- residual activity (PIM3 (human)): 133%
- residual activity (WNK3 (human)): 100%
- residual activity (LIMK1 (human)): 95.9%
- residual activity (EPHB1 (human)): 100%
- residual activity (GRK6 (human)): 98.3%
- residual activity (MARK4 (human)): 101%
- residual activity (DCLK2 (human)): 101%
- residual activity (CDK2 CCNE1 (human)): 96.7%
- residual activity (BMX (human)): 93.7%
- residual activity (EPHA2 (human)): 104%
- residual activity (SYK (human)): 94.9%
- residual activity (WNK2 (human)): 109%
- residual activity (MERTK (human)): 97.3%
- residual activity (PAK4 (human)): 103%
- residual activity (CLK1 (human)): 107%
- residual activity (KDR (human)): 101%
- residual activity (BLK (human)): 101%
- residual activity (NTRK2 (human)): 100%
- residual activity (RPS6KA3 KD1 KD2 (human)): 105%
- residual activity (EPHA4 (human)): 96.5%
- residual activity (FLT3 (human)): 97.9%
- residual activity (TGFBR2 (human)): 105%
- residual activity (AURKB (human)): 98.9%
- residual activity (CAMKK1 (human)): 116%
- residual activity (PTK6 (human)): 98.4%
- residual activity (ACVR1 (human)): 103%
- residual activity (FRK (human)): 102%

Compound: O=C1NC(=O)/C(=C\c2ccc3nccnc3c2)S1
- residual activity (FGFR3 (human)): 97.3%
- residual activity (CAMKK2 (human)): 72.9%
- residual activity (INSR (human)): 108%
- residual activity (PAK6 (human)): 107%
- residual activity (MAP3K10 (human)): 94.2%
- residual activity (MAPKAPK2 (human)): 97.7%
- residual activity (MINK1 (human)): 88.3%
- residual activity (PRKD1 (human)): 94.8%
- residual activity (DYRK4 (human)): 96.5%
- residual activity (PNCK (human)): 101%
- residual activity (PRKCI (human)): 98.6%
- residual activity (BRSK2 (human)): 90.9%
- residual activity (DYRK1A (human)): 21.8%
- residual activity (EPHA3 (human)): 97.1%
- residual activity (NUAK1 (human)): 92.8%
- residual activity (PIM3 (human)): 67.3%
- residual activity (WNK3 (human)): 85.8%
- residual activity (LIMK1 (human)): 87.4%
- residual activity (EPHB1 (human)): 93.4%
- residual activity (GRK6 (human)): 97%
- residual activity (MARK4 (human)): 89.9%
- residual activity (DCLK2 (human)): 94.3%
- residual activity (CDK2 CCNE1 (human)): 91.8%
- residual activity (BMX (human)): 98.6%
- residual activity (EPHA2 (human)): 99.9%
- residual activity (SYK (human)): 98%
- residual activity (WNK2 (human)): 115%
- residual activity (MERTK (human)): 92.1%
- residual activity (PAK4 (human)): 88.5%
- residual activity (CLK1 (human)): 80.1%
- residual activity (KDR (human)): 92.6%
- residual activity (BLK (human)): 99.4%
- residual activity (NTRK2 (human)): 90.7%
- residual activity (RPS6KA3 KD1 KD2 (human)): 101%
- residual activity (EPHA4 (human)): 96%
- residual activity (FLT3 (human)): 95.2%
- residual activity (TGFBR2 (human)): 108%
- residual activity (AURKB (human)): 101%
- residual activity (CAMKK1 (human)): 81.8%
- residual activity (PTK6 (human)): 95.1%
- residual activity (ACVR1 (human)): 102%
- residual activity (FRK (human)): 91.7%

Compound: COc1cc2ncnc(N3CCN(C(=O)Nc4ccc(Oc5ccccc5)cc4)CC3)c2cc1OC
- residual activity (FGFR3 (human)): 99.9%
- residual activity (CAMKK2 (human)): 81.6%
- residual activity (INSR (human)): 98.2%
- residual activity (PAK6 (human)): 95.2%
- residual activity (MAP3K10 (human)): 92%
- residual activity (MAPKAPK2 (human)): 102%
- residual activity (MINK1 (human)): 99.6%
- residual activity (PRKD1 (human)): 102%
- residual activity (DYRK4 (human)): 79.8%
- residual activity (PNCK (human)): 94.3%
- residual activity (PRKCI (human)): 105%
- residual activity (BRSK2 (human)): 94.1%
- residual activity (DYRK1A (human)): 97.9%
- residual activity (EPHA3 (human)): 93.7%
- residual activity (NUAK1 (human)): 88.8%
- residual activity (PIM3 (human)): 94.4%
- residual activity (WNK3 (human)): 101%
- residual activity (LIMK1 (human)): 69.8%
- residual activity (EPHB1 (human)): 94.3%
- residual activity (GRK6 (human)): 96.4%
- residual activity (MARK4 (human)): 76.5%
- residual activity (DCLK2 (human)): 90.6%
- residual activity (CDK2 CCNE1 (human)): 92.1%
- residual activity (BMX (human)): 90.9%
- residual activity (EPHA2 (human)): 95.7%
- residual activity (SYK (human)): 93.2%
- residual activity (WNK2 (human)): 102%
- residual activity (MERTK (human)): 60%
- residual activity (PAK4 (human)): 101%
- residual activity (CLK1 (human)): 89.4%
- residual activity (KDR (human)): 82.7%
- residual activity (BLK (human)): 113%
- residual activity (NTRK2 (human)): 121%
- residual activity (RPS6KA3 KD1 KD2 (human)): 115%
- residual activity (EPHA4 (human)): 93.2%
- residual activity (FLT3 (human)): 43.2%
- residual activity (TGFBR2 (human)): 102%
- residual activity (AURKB (human)): 76.1%
- residual activity (CAMKK1 (human)): 92.9%
- residual activity (PTK6 (human)): 95.2%
- residual activity (ACVR1 (human)): 100%
- residual activity (FRK (human)): 90.2%

Compound: CCN(CC)CCCCN1c2ccccc2Oc2ccc(Cl)cc21
- residual activity (FGFR3 (human)): 91.8%
- residual activity (CAMKK2 (human)): 105%
- residual activity (INSR (human)): 109%
- residual activity (PAK6 (human)): 102%
- residual activity (MAP3K10 (human)): 102%
- residual activity (MAPKAPK2 (human)): 97.2%
- residual activity (MINK1 (human)): 111%
- residual activity (PRKD1 (human)): 101%
- residual activity (DYRK4 (human)): 100%
- residual activity (PNCK (human)): 107%
- residual activity (PRKCI (human)): 105%
- residual activity (BRSK2 (human)): 107%
- residual activity (DYRK1A (human)): 104%
- residual activity (EPHA3 (human)): 101%
- residual activity (NUAK1 (human)): 90.7%
- residual activity (PIM3 (human)): 37.8%
- residual activity (WNK3 (human)): 108%
- residual activity (LIMK1 (human)): 94.3%
- residual activity (EPHB1 (human)): 110%
- residual activity (GRK6 (human)): 88.4%
- residual activity (MARK4 (human)): 97.2%
- residual activity (DCLK2 (human)): 101%
- residual activity (CDK2 CCNE1 (human)): 89.4%
- residual activity (BMX (human)): 104%
- residual activity (EPHA2 (human)): 106%
- residual activity (SYK (human)): 97.6%
- residual activity (WNK2 (human)): 119%
- residual activity (MERTK (human)): 95.5%
- residual activity (PAK4 (human)): 104%
- residual activity (CLK1 (human)): 110%
- residual activity (KDR (human)): 93.7%
- residual activity (BLK (human)): 106%
- residual activity (NTRK2 (human)): 102%
- residual activity (RPS6KA3 KD1 KD2 (human)): 98.6%
- residual activity (EPHA4 (human)): 91.9%
- residual activity (FLT3 (human)): 99%
- residual activity (TGFBR2 (human)): 96%
- residual activity (AURKB (human)): 94.1%
- residual activity (CAMKK1 (human)): 116%
- residual activity (PTK6 (human)): 95%
- residual activity (ACVR1 (human)): 101%
- residual activity (FRK (human)): 98.4%
